Earlier results as cited in patent publication US8697862B2, “Synthesis of galactoside inhibitors” (Galecto Biotech AB, priority 2008, dated 2014).
pKd: −log10 of the molar value.

Molecular target: galectins

pKd (all galectins)	SMILES	affinity, times lower than lactose (relative to lactose)
3.00 to 3.30	OC[C@H]1O[C@@H](O[C@H]2[C@H](O)[C@@H](O)C(O)O[C@@H]2CO)[C@H](O)[C@@H](O)[C@H]1O (some centres unmarked) [lactose]	–
–	O=C[C@H](O)[C@@H](O)[C@@H](O)[C@H](O)CO [D-galactose]	50-100 times
